According to patent US8916612B2, “Agmatine containing dietary supplements, nutraceuticals, and foods” (priority 2008, dated 2014):
Where “and” joins values, the source holds several entries; their conditions need not be identical. Identical values can stand only once.

Tested on: male Wistar rats
Assay: Sub-chronic intake of high dose agmatine sulfate in the drinking water (Example II)
Type: in vivo, rat
Settings: for Blood Pressure (mmHg), systolic, mean / Daily Drinking (ml), mean / Body Weight (g), mean: group mean; for Body Weight / Blood Pressure (mmHg), systolic / Daily Drinking: individual animal, sulfate
Description: The experiment was performed at Assaf Harofeh Medical Center, Israel, according to the Institutional Animal Care and Use Committee approved protocol. Three-month-old male Wistar rats (Harlan, Israel) weighing 250±20 g were caged individually under standard vivarium conditions of temperature (22±2° C.), humidity (55-75%) and light (12 h light-dark cycle) with a free supply of food and water. Experimental animals (n=10) drank sterile water containing agmatine sulfate 5.3 g/l, while controls (n=10) drank regular sterile drinking-water for 95 days. Drinking-water containing agmatine sulfate have bitter taste.
Animal body weight and systolic blood pressure (SBP) as measured by tail-cuff plethysmography (IITC Life Science, Woodland Hills, Calif.) were measured at the starting day of the experiment (day 1) and at various intervals thereafter. General behavior, fur appearance and feces appearance were also assessed. Water consumption was measured daily. After 95 days, 5 animals of each group were deeply anesthetized ([…] sodium pentobarbital, intraperitoneal) and the stomach, kidney, heart and liver removed for gross inspection. The stomach was inspected for appearance of ulcers. The rest of the animals, in both the control and experimental groups, were all maintained on regular diet (without agmatine sulfate in the drinking-water) for additional 20 days and then killed (on the 115th day). Results were evaluated by analysis of variance (ANOVA) procedure. Differences were analyzed by 2-tailed t-test and values of p≦0.05 were considered statistical significant. For data normalization, differences were expressed as percent change of day 1 values.

[1] = Day 115 (20 days after treatment)

N=C(N)NCCCCN.O=S(=O)(O)O [agmatine sulfate]
Weight gain after switch to regular drinking water (after 95 days of treatment): recovery in weight gain within 20 days | Weight gain (during treatment): reduced weight gain with actual weight loss during the first 3 weeks of treatment | Volume of water intake (during treatment, 5.3 g/l in drinking water): reduction in volume of water intake | Systolic blood pressure (during treatment, recovered 20 days after cessation): slight, but significant reduction | Blood Pressure (mmHg), systolic, mean (Day 1): 106.4 mmHg | Daily Drinking (ml), mean (Day 1): 34.8 mL | Body Weight (g), mean (Day 1, n=10): 253.4 g | Blood Pressure (mmHg), systolic, mean (Day 21, p<0.05 vs day 1): 103.5 ± mmHg | Body Weight (g), mean (Day 21, p<0.05 vs day 1): 247.3 ± g | Daily Drinking (ml), mean (Day 21, p<0.05 vs day 1): 25.1 ± ml | Blood Pressure (mmHg), systolic, mean (Day 95, p<0.05 vs day 1): 103.1 ± mmHg | Body Weight (g), mean (Day 95, p<0.05 vs day 1): 258.9 ± g | Daily Drinking (ml), mean (Day 95, p<0.05 vs day 1): 29.2 ± ml | Body Weight (g), mean (Day 115 (20 days after treatment), n=5, p<0.05 vs day 1): 261.4 ± g | Blood Pressure (mmHg), systolic, mean (Day 115, n=5): 105.8 mmHg | Daily Drinking (ml), mean (Day 115, n=5): 34.9 mL | Body Weight (Day 1 (beginning), 5.3 g/l in drinking water): 250 g (2×) and 265 g and 255 g and 257 g and 247 g and 245 g and 252 g and 260 g and 253 g | Blood Pressure (mmHg), systolic (Day 1, tail-cuff): 99.0 mmHg and 100.0 mmHg and 105.0 mmHg (2×) and 112.0 mmHg and 115.0 mmHg and 110.0 mmHg and 109.0 mmHg and 102.0 mmHg and 107.0 mmHg | Daily Drinking (Day 1): 35.5 ml and 34.8 ml and 35.6 ml (2×) and 34.7 ml and 33.4 ml and 35.0 ml (2×) and 33.8 ml and 34.5 ml | Blood Pressure (mmHg), systolic (Day 21): 97.0 mmHg and 95.0 mmHg and 100.0 mmHg (2×) and 109.0 mmHg and 115.0 mmHg and 103.0 mmHg (2×) and 107.0 mmHg and 106.0 mmHg | Daily Drinking (Day 21): 21.4 mL and 25.3 mL and 25.1 mL and 25.0 mL and 24.1 mL and 25.5 mL and 26.4 mL and 24.9 mL and 27.0 mL and 26.7 mL | Body Weight (Day 21 of treatment): 255 g (2×) and 245 g (3×) and 260 g and 227 g and 242 g and 250 g and 249 g | Blood Pressure (mmHg), systolic (Day 95): 95.0 mmHg and 97.0 mmHg and 101.0 mmHg (2×) and 110.0 mmHg and 112.0 mmHg and 105.0 mmHg (2×) and 106.0 mmHg and 99.0 mmHg | Daily Drinking (Day 95): 25.6 ml and 28.7 ml and 30.0 ml (2×) and 27.7 ml and 29.6 ml and 30.3 ml and 28.4 ml and 31.3 ml and 30.6 ml | Body Weight (Day 95 of treatment): 265 g and 257 g (2×) and 273 g and 253 g and 251 g and 255 g (2×) and 263 g and 260 g | Blood Pressure (mmHg), systolic [1]: 108.0 mmHg and 107.0 mmHg (2×) and 104.0 mmHg and 103.0 mmHg | Body Weight [1]: 256 g and 261 g and 259 g and 267 g and 264 g | Daily Drinking [1]: 34.5 mL and 35.3 mL and 34.9 mL and 35.0 mL and 34.8 mL | Stomach ulcers (inspection after 95 days): no stomach ulcers were observed | Average daily water consumption (over the 95 day treatment period): 27.15 mL | Inspection of main internal organs (stomach, kidney, heart, liver): did not reveal any gross changes
